Reference: article PMC9731865, “Gambogic acid and juglone inhibit RNase P through distinct mechanisms” (The Journal of Biological Chemistry, 2022)

Legend:
[1] = molecular target: T1, human MRPP1/2/3 (Homo sapiens, UniProt O15091); assay: Human mitochondrial RNase P (MRPP1/2/3) activity assay; assay type: biochemical; conditions: 30 min preincubation; 50 nM MRPP3, 500 nM MRPP1/2, 500 nM pre-tRNA, 37 °C; apparent IC50 for juglone
T1 construct: N-terminal truncation (residues 46–583, Δ45MRPP3); His6 (N, cleaved yes); made in house; host or cells: Rosetta (DE3) / Rosetta2 (DE3) E. coli
T1 sequence (O15091 46-583): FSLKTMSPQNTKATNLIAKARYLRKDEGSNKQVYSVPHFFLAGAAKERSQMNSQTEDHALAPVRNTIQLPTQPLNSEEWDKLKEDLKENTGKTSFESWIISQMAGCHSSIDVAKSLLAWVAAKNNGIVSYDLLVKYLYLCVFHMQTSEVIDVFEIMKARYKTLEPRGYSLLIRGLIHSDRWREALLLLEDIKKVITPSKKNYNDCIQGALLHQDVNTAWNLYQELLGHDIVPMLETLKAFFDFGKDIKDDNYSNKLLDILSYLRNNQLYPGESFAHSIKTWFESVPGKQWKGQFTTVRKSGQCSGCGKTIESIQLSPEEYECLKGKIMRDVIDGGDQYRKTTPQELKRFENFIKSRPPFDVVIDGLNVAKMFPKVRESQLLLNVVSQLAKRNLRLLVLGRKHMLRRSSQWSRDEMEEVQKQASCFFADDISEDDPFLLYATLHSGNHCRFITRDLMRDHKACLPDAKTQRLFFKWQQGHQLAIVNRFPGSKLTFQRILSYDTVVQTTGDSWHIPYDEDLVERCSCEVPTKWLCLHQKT
Experimental: Figure 4 Gambogic acid and juglone inhibit A. thaliana PRORP1 (green), human MRPP1/2/3 (red), and B. subtilis RNase P (blue). Compounds gambogic acid (A) and juglone (B) were incubated with enzyme at double the reaction concentration for 30 min prior to the addition of an equal volume of substrate to initiate the reaction. PRORP1 reactions (shown in green) were performed with 0.3 nM PRORP1 and 800 nM pre-tRNA containing 40 nM Fl-pre-tRNA at 25 °C in 30 mM MOPS pH 7.8, 5 mM MgCl2, 100 mM NaCl, 1 mM TCEP, 500 nM (12 μg/ml) yeast tRNA, 5 mM spermidine, 6.65 μg/ml BSA, and 0.01% NP-40. MRPP1/2/3 reactions (shown in red) were performed using 50 nM MRPP3, 500 nM MRPP1/2, 500 nM pre-tRNA containing 40 nM Fl-pre-tRNA at 37 °C in 50 mM MOPS (pH 7.8), 1 mM TCEP, 4.5 mM MgCl2, and 100 mM NaCl. […]
The inhibition of human MRPP1/2/3 by gambogic acid and juglone was evaluated via dose–response using a quenched assay. Human MRPP1/2/3 activity was measured as a function of gambogic acid and juglone concentration using 50 nM MRPP3, 500 nM MRPP1/2, 500 nM pre-tRNA containing 40 nM Fl-pre-tRNA in 50 mM MOPS (pH 7.8), 4.5 mM MgCl2, 100 mM NaCl, and 1 mM TCEP (pH 7.5). […] Samples were separated by 20% Urea PAGE (Ultra Pure SequaGel), fluorescence signal was quantified using ImageJ, and the data were analyzed using Prism. […]

[2] = molecular target: T2, B. subtilis RNase P (Bacillus subtilis, UniProt P25814); assay: B. subtilis RNase P activity assay (FP, real-time); assay type: biochemical
T2 construct: made in house
T2 sequence (P25814 whole entry): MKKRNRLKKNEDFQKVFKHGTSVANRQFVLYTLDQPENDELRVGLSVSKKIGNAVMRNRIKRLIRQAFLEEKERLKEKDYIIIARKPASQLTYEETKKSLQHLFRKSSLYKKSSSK
Experimental: Figure 4 Gambogic acid and juglone inhibit A. thaliana PRORP1 (green), human MRPP1/2/3 (red), and B. subtilis RNase P (blue). Compounds gambogic acid (A) and juglone (B) were incubated with enzyme at double the reaction concentration for 30 min prior to the addition of an equal volume of substrate to initiate the reaction. PRORP1 reactions (shown in green) were performed with 0.3 nM PRORP1 and 800 nM pre-tRNA containing 40 nM Fl-pre-tRNA at 25 °C in 30 mM MOPS pH 7.8, 5 mM MgCl2, 100 mM NaCl, 1 mM TCEP, 500 nM (12 μg/ml) yeast tRNA, 5 mM spermidine, 6.65 μg/ml BSA, and 0.01% NP-40. MRPP1/2/3 reactions (shown in red) were performed using 50 nM MRPP3, 500 nM MRPP1/2, 500 nM pre-tRNA containing 40 nM Fl-pre-tRNA at 37 °C in 50 mM MOPS (pH 7.8), 1 mM TCEP, 4.5 mM MgCl2, and 100 mM NaCl. B. subtilis RNase P reactions (shown in blue) were performed using 20 nM RNase P and 500 nM pre-tRNA containing 40 nM Fl-pre-tRNA at 37 °C in 50 mM Tris, pH 7.2, 5 mM MgCl2, 100 mM KCl, 500 nM (12 μg/ml) yeast tRNA, 20 mM dithiothreitol (DTT), 10 mM spermidine, and 0.01% NP-40. Equation 1 was fit to each dataset.
The inhibition of B. subtilis RNase P activity by gambogic acid and juglone was measured using a previously developed FP assay in real-time.^25 Reactions were performed under multiple turnover conditions using 20 nM RNase P and 500 nM Fl-pre-tRNA^Asp in 50 mM Tris (pH 7.2), 5 mM MgCl2, 100 mM KCl, 500 nM (12 μg/ml) yeast tRNA^mix, 20 mM dithiothreitol, 10 mM spermidine, and 0.01% NP-40 at 37 °C.

Question: With CC(C)=CCC[C@]1(C)C=Cc2c(O)c3c(c(CC=C(C)C)c2O1)O[C@]12C(=C[C@@H]4C[C@H]1C(C)(C)O[C@@]2(C/C=C(/C)C(=O)O)C4=O)C3=O [gambogic acid] as the compound, how does the IC50 [1] read?
Answer: The IC50 was 0.26 ± 0.06 µM.

Question: What about the IC50 [2] of the same compound?
Answer: Its IC50 is 50 ± 2 µM.

Question: Which IC50 [1] does the source give for O=C1C=CC(=O)c2c(O)cccc21 [juglone, 5-hydroxy-1,4-naphthalenedione] here?
Answer: The IC50 was 1.8 ± 0.04 µM.

Question: And the IC50 [2]?
Answer: Its IC50 is over 500 µM.
